Results: PMC8131842, “Therapeutic Potential of Vasoactive Intestinal Peptide and its Derivative Stearyl-Norleucine-VIP in Inflammation-Induced Osteolysis” (Frontiers in Pharmacology, 2021)

What was measured:
[1] = matrix not given, ref Gozes et al., 1994, 1996; cited from earlier work
Description: (§1) VIP derivatives and conjugates were designed to include a lipophilic moiety or a shortened VIP chain ([Gozes and Fridkin, 1992]; [Gozes et al., 1994]; [Gozes et al., 1995]; [Gozes et al., 1996]; [Gozes et al., 1999]). Stearyl-norleucine-VIP (Stearyl-Nle^17VIP, SNV) is a lipophilic compound consisting of a VIP molecule with an N-terminal attachment of stearic acid to increase cell and tissue bioavailability and an exchange of the oxidation-vulnerable methionine at position 17 with the stable norleucine.

neuroprotection = settings: ref Ashur-Fabian et al., 1999; cited from earlier work
Description: as §1

[2] = system: LPS-stimulated primary murine macrophages (IL1β, IL6 and TNFα expression); assay: Pro-inflammatory cytokine mRNA expression (RT-qPCR) in LPS-stimulated macrophage cultures; type: cell-based, mouse; settings: 10^−6 M, added 1 h before LPS 1 μg/ml, 24 h, bone marrow-derived macrophages
Experimental: Cell culture. Primary bone marrow-derived macrophages (BMDMs) were isolated from the femora and tibiae of 10-week-old C57BL/6J mice (Envigo, Israel), as previously described ([Hiram-Bab et al., 2015]). Briefly, cells were cultured overnight at 37°C in a humidified atmosphere with 5% CO2 in our “standard medium” consisting of alpha-modified Eagle’s medium (αMEM, Life Science Technology, NY, United States) and 10% fetal bovine serum (FBS, Rhenium, Ltd., Modi’in, Israel). After 24 h, the non-adherent fraction was cultured in 10-cm non-culture-treated dishes containing standard medium and 100 ng/ml macrophage colony stimulating factor (M-CSF) ([Takeshita et al., 2000]). The resulting adherent BMDMs were collected after 3 days for the specific assays described below.
RNA isolation, and RT-qPCR. Following a 24 h incubation with Ti particles (or LPS/vehicle only/SNV/VIP in addition to Ti particles), macrophages were washed with sterile PBS, and RNA was extracted using Tri-RNA Reagent (Favorgen Biotech Corp, Kaohsiung, Taiwan). The 260/280 absorbance ratio was measured to verify the RNA purity and concentration. cDNA was produced using a high-capacity cDNA reverse transcription kit (Invitrogen, Grand Island, NY, United States), and real-time PCR was performed using Kapa SYBR Fast qPCR (Kapa Biosystems, Wilmington, MA, United States) on a StepOne real-time PCR machine (Applied Biosystems, Grand Island, NY, United States).
The following primers were used: F-[…] and R-[…] for mouse IL1β; F-[…] and R-[…] for mouse IL6; F-[…] and R-[…] for mouse TNFα; F-CCGTAACTGCACTGAAGA-AG and R-[…] for VPAC-1; F-CAGCAGACCAGGAAACAT-AA and R-GCCACACGCATCTATGAA for VPAC-2 and F-[…] and R-[…] for Gapdh. The reaction was subjected to 40 cycles of amplification using the following program: 95°C for 20 s, 60°C for 20 s, and 72°C for 25 s. The relative mRNA expression levels of the selected genes were normalized to the level of Gapdh.
IL1β, IL6 and TNFα are the main mediators of Ti particle-mediated inflammation and osteolysis ([Eger et al., 2017]; [Eger et al., 2018]). […]

[3] = system: histidine auxotrophs of Salmonella typhimurium; assay: Study 005 mutagenic potential (Ames test); type: cell-based
Experimental: Although, the studies were not carried out under Good Laboratory Practices (GLP) stipulations, SNV was synthesized under GLP conditions, and all the work was carried out at Tel Aviv University under meticulous conditions using professional staff and established methods (in a designated air-conditioned, clean room and specific luminary flow hood), which all strengthen the trustworthiness of the study results. Ames tests were carried out by Life Science Research Israel Ltd. Ness Ziona, Israel.

rats = assay: Study 001–2 acute intravenous toxicity in rats; type: in vivo, rat; settings: for Necrotic reaction at the site of injection: vehicle group 2: 55%
Experimental: Toxicology. We performed toxicology studies for SNV that consisted of acute subcutaneous, intravenous and oral toxicity in rats, acute dermal toxicity in rabbits, skin sensitization using adjuvant and patch test in guinea pigs, and single and repeated (for 13 weeks) dose toxicity studies in rats. The latter was a 90-days repeated dose toxicity study, consisting of SNV once a day at three different doses to the penis and vagina of male and female rats, respectively. The compound was tested for the treatment of erectile dysfunction. The active dose (7 µg SNV) was chosen as the lowest dose for the study. The highest dosage group in the repeated dose toxicity study received 3,500 µg ([Gozes et al., 1994]). For study 001 (parts 1 through 3), the 1× dose consisted of 0.5 mg SNV dissolved in 7.1 ml vehicle (3.55 ml 10% Sefsol [glycerin monocaprylate] + 3.55 ml isopropanol) and 100µl/animal were administered; the 1000X dose consisted of 91 mg SNV dissolved in 1.3 ml vehicle (0.65 ml 10% Sefsol +0.65 ml isopropanol) and 100µl/animal were administered. For studies 002 through 004, the indicated doses of SNV (Table 1) were dissolved in 0.25 ml 10% Sefsol +0.25 ml 40% isopropanol (vehicle). The methodology for each of the toxicology studies is detailed in Table 1.

[4] = intravenously administered, 30 min after injection; ref Gozes et al., 1994; cited from earlier work
Description: VIP and its derivative SNV have been previously studied for immunomodulation properties ([Abad et al., 2006]; [Goursaud et al., 2015]). Here we show the effect of each peptide on the cytokine profile of macrophages in response to LPS and in the osteolytic response to Ti particles using in vitro and in vivo mouse models. […] Furthermore, loading a single dose of SNV into a degradable memb ...

## Stearyl–HSDAVFTDNYTRLRKQ-Nle-AVKKYLNSILN-NH2 [SNV, Stearyl-norleucine-VIP, lipophilic VIP derivative with N-terminal stearic acid and norleucine in place of methionine at position 17]
[1]
  Half-life: 15 min
neuroprotection
  Potency relative to VIP in neuroprotection: 1000 fold
[2]; n=5
  Effect on TNFα expression vs LPS: no effect
[2]; n=5, p < 0.05
  Reduction of IL1β expression levels vs LPS: 35%
[2]; n=5, plus = increase
  Change of IL6 expression vs LPS: no effect
[3]; 0.3 to 312.5 µg/plate
  Revertant colony numbers over control: No significant increases in revertant colony numbers over control with test material at doses ranging from 0.3 to 312.5 µg/plate
[3]; 0.3–312.5 µg/standard bacterial plate
  Mutagenic activity, conclusion: Under the conditions of this study, the test material, SNV was devoid of mutagenic activity
rats; intravenous, 7 µg/rat (1×, group 3)
  Mortality: 7 rats (3 males and 4 females) out of 12 died within 3 h after administration in group 4 (SNV -1000X). One rat died in group 2 within 5–24 h after administration. No mortality occurred in groups 1 and 3
rats; intravenous, 7 µg/rat (group 3)
  Necrotic reaction at the site of injection: 58%
rats; intravenous, 7 mg/rat (group 4)
  Necrotic reaction at the site of injection: 100%
rats; intravenous, all groups, initial weight loss recovered during the study
  Reactions: body weight: Necrotic reaction was observed at the site of injection in 55% group 2, 58% group 3 and 100% group 4. Most surviving rats displayed normal body weight, and some weight loss observed initially was recovered during the study
rats; tail vein, S.D. rats, estimated
  Acute intravenous median lethal dose, male rats: 7 mg/male rat
[4]
  Remaining intact SNV: 10%
